Data as given in patent publication US20060052414A1, “Compositions and methods for treating or preventing Hepadnaviridae infection” (priority 2004, published 2006).
Like-named read-outs stand apart in the source and are kept apart here.

Tests used:
HBV = experiment: Anti-HBV antiviral assay: extracellular HBV virion DNA by Southern blot in HepG 2.2.15 cultures; type: cell-based, hepatitis B virus
Protocol: Confluent cultures of chronic HBV producing cell line HepG 2.2.15 in 96-well tissue culture plates in RPMI 1640 medium with 2% fetal bovine serum were used for the antiviral analysis of castanospermine esters (see Korba and Gerin, Antivir. Res. 19:55-70, 1992).
Extracellular HBV nucleic acid levels were measured 24 hours after the last treatment by Southern blot hybridization (quantified via densitometry using equipment and methods known in the art) as a measure of the number of HBV virions produced.
Based on the hybridization analysis, about 1.0 pg extracellular HBV DNA/ml of culture medium is roughly equivalent to about 3×10^5 viral particles/ml. Values ±standard deviations (SD) were calculated by linear regression analysis using data combined from all treated cultures. SDs were calculated using the standard error of regression generated from the linear regression analyses.

HepG 2.2.15 = experiment: Cytotoxicity, neutral red dye uptake; details: for Cytotoxicity - Neutral Red Dye Uptake: 24 hours after final treatment
Protocol: (§1) Cytotoxicity analyses were also performed in order to assess whether any observed antiviral effects were due to a general effect on cell viability. This analysis was performed on 96-well plates seeded at the same time and with the identical pool of stock cells used for the antiviral assay described in Example 1. […] Cellular uptake of neutral red dye was used to determine the relative level of toxicity 24 hours after the final treatment. A cell that is viable will take up the neutral red dye, while a dead cell will not. The absorbance of internalized dye at 510 nm (A510) was used for quantitative analysis. Values are presented as a percentage of the average A510 values (±standard deviation, SD) in 9 separate cultures of untreated cells on the same plate.
(§2) The EC90 and CC50 values were used to calculate a Selectivity Index (SI, CC50/EC90) because at least a […] reduction in HBV levels is considered as having achieved statistical significance in this assay (see Korba & Gerin, Antiviral Res. 19:55-70,1992).

[1] = Cytotoxicity, neutral red dye uptake; details: human
Protocol: as §1, §2

[2] = Hepatitis B virus, HepG2.2.15, Table 5, monotherapy, or celgosivir concentration in combination with ADV

In the case of `CCCC(=O)O[C@H]1CN2CC[C@H](O)[C@@H]2[C@@H](O)[C@@H]1O` [Celgosivir, [1S-(1α,6β,7α,8β,8aβ)]-octahydro-1,6,7,8-indolizinetetrol 6-butanoate], the “HBV Virion DNA Levels” value (HBV; 15 μM (first panel), 9 daily doses, untreated cells 121 pg/mL) is reported as 113 ± 9 pg/mL culture medium, the “HBV Virion DNA Levels” value (HBV; 15 μM celgosivir (third panel; combinations plus ADV at the molar ratio)) is reported as 111 ± 8 pg/mL culture medium and the “HBV Virion DNA Levels” value (HBV; 50 μM (first panel), 9 daily doses, untreated cells 121 pg/mL) is reported as 56 ± 4 pg/mL culture medium. For the same compound, the “HBV Virion DNA Levels” value (HBV; 50 μM celgosivir (third panel; combinations plus ADV at the molar ratio), assay sensitivity 0.1 pg/mL) was 53 ± 6 pg/mL culture medium, the “HBV Virion DNA Levels” value (HBV; 150 μM (first panel), 9 daily doses, untreated cells 121 pg/mL) was 17 ± 2 pg/mL culture medium and the “HBV Virion DNA Levels” value (HBV; 150 μM celgosivir (third panel; combinations plus ADV at the molar ratio), assay sensitivity 0.1 pg/mL) was 16 ± 2 pg/mL culture medium. For the same compound, the “HBV Virion DNA Levels” value (HBV; 300 μM, 9 daily doses, extracellular, 24 hours after last treatment, untreated cells 121 pg/mL) was 8 ± 1 pg/mL culture medium, the EC50 (HBV; Table 3, concentration giving 2-fold reduction in HBV DNA vs untreated cultures, read-out: EC50) was 28 ± 1.4 µM and the EC90 (HBV; Table 3, concentration giving 10-fold reduction in HBV DNA vs untreated cultures, read-out: EC90) was 158 ± 22 µM. For the same compound, the EC50 (HBV; Table 5, monotherapy, or celgosivir concentration in combination with ADV, read-out: EC50) was 24 ± 1.2 µM, the EC90 (HBV; Table 5, monotherapy, or celgosivir concentration in combination with ADV, read-out: EC90) was 147 ± 15 µM and the “HBV virion production by the 2.2.15 cells, in words” value (HBV; summary of Tables 2 and 3) was “caused a reduction in HBV virion production”. It also gave a CC50 (HepG 2.2.15; Table 5, 2-fold reduction in neutral red dye uptake, value for the drug named, >1000 = highest concentration tested) of over 1000 µM.

In the case of `CC(C)(C)C(=O)OCOP(=O)(COCCn1cnc2c(N)ncnc21)OCOC(=O)C(C)(C)C` [ADV, adefovir dipivoxil], the “HBV Virion DNA Levels” value (HBV; 0.3 μM ADV, untreated cells 121 pg/mL) is reported as 121 ± 13 pg/mL culture medium, the “HBV Virion DNA Levels” value (HBV; 1.0 μM ADV, untreated cells 121 pg/mL) is reported as 55 ± 4 pg/mL culture medium and the “HBV Virion DNA Levels” value (HBV; 3.0 μM ADV, untreated cells 121 pg/mL) is reported as 11 ± 2 pg/mL culture medium. For the same compound, the “HBV Virion DNA Levels” value (HBV; 10 μM ADV, untreated cells 121 pg/mL) was 3 ± 1 pg/mL culture medium, the EC50 (HBV; Hepatitis B virus, HepG2.2.15, Table 3, concentration giving 2-fold reduction in HBV DNA vs untreated cultures, read-out: EC50) was 0.95 ± 0.105 µM and the EC90 (HBV; Hepatitis B virus, HepG2.2.15, Table 3, concentration giving 10-fold reduction in HBV DNA vs untreated cultures, read-out: EC90) was 2.8 ± 0.1 µM. The EC50 (HBV; Hepatitis B virus, HepG2.2.15, Table 5, monotherapy, or celgosivir concentration in combination with ADV, read-out: EC50) was 1 ± 0.1 µM, the EC90 (HBV; Hepatitis B virus, HepG2.2.15, Table 5, monotherapy, or celgosivir concentration in combination with ADV, read-out: EC90) was 3 ± 0.1 µM and the CC50 [1] was 468 ± 17 µM. For the same compound, the “Cytotoxicity - Neutral Red Dye Uptake” value (HepG 2.2.15; 30 μM (combinations: dose of celgosivir)) was 100% ± 2 % of Control, the “Cytotoxicity - Neutral Red Dye Uptake” value (HepG 2.2.15; 100 μM (combinations: dose of celgosivir)) was 98% ± 1 % of Control and the “Cytotoxicity - Neutral Red Dye Uptake” value (HepG 2.2.15; 300 μM (combinations: dose of celgosivir)) was 73% ± 2 % of Control. For the same compound, the “Cytotoxicity - Neutral Red Dye Uptake” value (HepG 2.2.15; 1000 μM (combinations: dose of celgosivir)) was 10% ± 1 % of Control.

Compound `Nc1ccn([C@@H]2CS[C@H](CO)O2)c(=O)n1` [Compound 3TC, (−)2′,3′-dideoxy, 3′-thiacytidine] has an EC50 (HBV; Hepatitis B virus, HepG2.2.15, Table 3, concentration giving 2-fold reduction in HBV DNA vs untreated cultures) of 0.058 ± 0.004 µM, an EC90 (HBV; Hepatitis B virus, HepG2.2.15, Table 3, concentration giving 10-fold reduction in HBV DNA vs untreated cultures) of 0.177 ± 0.015 µM and an EC50 (HBV; [2]) of 0.058 ± 0.004 µM. The EC90 (HBV; [2]) was 0.177 ± 0.015 µM, the “Selectivity Index (CC50/EC90)” value (HBV; Table 5, monotherapy, or celgosivir in combination with ADV) was 11,709 and the CC50 [1] was 2340 ± 89 µM.
